Data from patent US9790169B2, “IDO inhibitors” (BRISTOL-MYERS SQUIBB COMPANY, priority 2015, dated 2017).

Target: human IDO1 (Homo sapiens, UniProt P14902)
Assay: Assessment of human IDO-1 inhibitory activity in Hela cells (Interferon-gamma stimulated HeLa cells, Ehrlich reagent, absorbance 490 nm)
Type: cell-based
Set-up: endogenous in cells; host or cells: HeLa cells stimulated with interferon-gamma
Settings: Hela Human IDO-1 cellular assay
Method: Exemplary compounds were tested for inhibition of IDO activity.
Assessment of Human IDO-1 Inhibitory Activity in Hela Cells
HeLa cells were seeded at 20,000 cells per 30 μL per well with RPMI/phenol red free media containing 10% FBS in a 384-well tissue culture plate (black with clear bottoms). 50 nL of compound was added to cells and incubated at 37° C. for one hour. 20 μL of the recombinant human Interferon-gamma (R&D System, Cat. #285-IF, at final concentration of 10 ng/ml) or recombinant murine Interferon-gamma (PEPROTECH® Inc., Cat. #315-05, final concentration of 5 ng/ml) was added to activate IDO signaling. The cells were incubated for 18 hours in 37° C. incubator with 5% CO2.
Compound treatment was stopped by adding 5 μl trichloroacetic acid to a final concentration of 3%. Subsequently, the cell plate was further incubated at 50° C. for 30 minute. An equal volume supernatant (20 μL) and 2% (w/v) Ehrlich reagent (4-dimethylaminobenzaldehyde) in glacial acetic acid were mixed in a new clear bottom 384-well plate. This plate was incubated at room temperature for 30 minutes. Absorbance at 490 nm was measured on Envision plate reader.
Compound IC50 values were calculated using counts from unstimulated (no INF-gamma treatment) wells as 100% inhibition. INF-gamma treatment without compound treatment as 0% inhibition.

Chain of human IDO1 (P14902 whole entry): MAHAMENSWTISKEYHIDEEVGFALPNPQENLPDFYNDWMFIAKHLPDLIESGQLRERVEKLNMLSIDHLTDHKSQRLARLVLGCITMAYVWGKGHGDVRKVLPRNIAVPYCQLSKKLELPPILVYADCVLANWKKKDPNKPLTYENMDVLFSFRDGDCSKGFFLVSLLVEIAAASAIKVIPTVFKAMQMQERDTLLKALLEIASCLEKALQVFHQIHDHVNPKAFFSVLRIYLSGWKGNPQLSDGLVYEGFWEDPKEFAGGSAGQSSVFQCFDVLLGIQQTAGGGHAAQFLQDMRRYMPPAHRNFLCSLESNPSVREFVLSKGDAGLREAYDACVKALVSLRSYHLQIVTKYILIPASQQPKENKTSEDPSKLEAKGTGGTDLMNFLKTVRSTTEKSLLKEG

| IC50 [nM] | SMILES |
| --- | --- |
| < 5 | CCC(CC(=O)O)c1ccc(N(C)C2CCOCC2)c(Nc2ccc(C#N)cc2)c1 (single isomer, unassigned) [Example 870, 3-(3-((4-Cyanophenyl)amino)-4-(methyl(tetrahydro-2H-pyran-4-yl)amino)phenyl)pentanoic acid] |
| < 50 | CCC(CC(=O)O)c1cc(F)c(N(CC)C2CCOCC2)c(Nc2cnc(OCC3CC3)nc2)c1 (single isomer, unassigned) [Example 136, 3-(3-((2-(cyclopropylmethoxy)pyrimidin-5-yl)amino)-4-(ethyl(tetrahydro-2H-pyran-4-yl)amino)-5-fluorophenyl)pentanoic acid] |
| > 50 | CCOc1ncc(Nc2cc([C@H](CC)CC(C)(C)O)ccc2N(CC)C2CCOCC2)cn1 (single isomer, unassigned) [Example 1368] |
| > 50 | COCC(CC(=O)O)c1ccc(N2CCOC[C@H]2C(C)C)c(NC(=O)Nc2ccc(C#N)cc2)c1 (single isomer, unassigned) [Example 911] |
| < 50 | CCN(c1c(F)cc(C(COC)CC(=O)O)cc1Nc1ccc(C#N)cc1)C1CCOCC1 (single isomer, unassigned) [Example 918, 3-(3-((4-Cyanophenyl)amino)-4-(ethyl(tetrahydro-2H-pyran-4-yl)amino)-5-fluorophenyl)-4-methoxybutanoic acid] |
| > 50 | CCC1COCCN1c1ccc([C@H](COC)CC(=O)O)cc1Nc1ccc(F)cc1 (single isomer, unassigned) [Example 1293] |
| > 50 | CCCN(c1ccc([C@H](COC)CC(=O)O)cc1NC(=O)Nc1ccc(C#N)cc1)C1CCOCC1 (single isomer, unassigned) [Example 577] |
| > 50 | CCN(c1ccc([C@@H](COC)CC(=O)O)cc1Nc1ccccc1C#N)C1CCOCC1 (single isomer, unassigned) [Example 369] |
| > 50 | CCN(c1ccc(C2(CC(=O)O)CCOCC2)cc1Nc1ccc(OC)nc1)C1CCOCC1 [Example 156, 2-(4-(4-(ethyl(tetrahydro-2H-pyran-4-yl)amino)-3-((6-methoxypyridin-3-yl)amino)phenyl)tetrahydro-2H-pyran-4-yl)acetic acid] |
| < 50 | CCC(CC(=O)O)c1ccc(N2CCOC(C)(C)C2)c(Nc2ccc(Cl)cc2)c1 (single isomer, unassigned) [Example 1319 E1, 3-(3-((4-Chlorophenyl)amino)-4-(2,2-dimethylmorpholino)phenyl)pentanoic acid] |
| > 50 | CCCN(c1ccc(C(C)(C)CC(=O)O)cc1Nc1cnc(OC)nc1)C1CCS(=O)(=O)CC1 [Example 189, 3-(4-((1,1-dioxidotetrahydro-2H-thiopyran-4-yl)(propyl)amino)-3-((2-methoxypyrimidin-5-yl)amino)phenyl)-3-methylbutanoic acid] |
| > 50 | CCN(c1ccc([C@@H](COC)CC(=O)O)cc1Nc1ccc(C(N)=O)cc1)C1CCOCC1 (single isomer, unassigned) [Example 385] |
| > 50 | CCC1COCCN1c1ccc([C@@H](COC)CC(=O)O)cc1Nc1ccc(C#N)c(F)c1 (single isomer, unassigned) [Example 1282] |
| < 50 | CC[C@H](CC(=O)O)c1ccc(N(CC)C2CCOCC2)c(Nc2cnc(N(C)C)nc2)c1 (single isomer, unassigned) [Example 502] |
| < 5 | CCN(c1ccc(C(CC(=O)O)C2CC2)cc1Nc1ccc(C#N)cc1)C1CCOCC1 (single isomer, unassigned) [Example 34, 3-(3-((4-cyanophenyl)amino)-4-(ethyl(tetrahydro-2H-pyran-4-yl)amino)phenyl)-3-cyclopropylpropanoic acid] |
| < 50 | CCN(c1ccc([C@@H](COC)CC(=O)O)cc1Nc1ccc(F)cn1)C1CCOCC1 (single isomer, unassigned) [Example 363] |
| > 50 | COCC(CC(=O)O)c1ccc(N2C[C@@H](C)O[C@@H](C)C2)c(Nc2ccc(C#N)cc2)c1 (single isomer, unassigned) [602 E1] |
| < 5 | CCC(CC(=O)O)c1ccc(N2CCOC[C@H]2C(C)C)c(Nc2ccc(Cl)cc2)c1 (single isomer, unassigned) [Example 888] |
| > 50 | CCN(c1ccc([C@@H](COC)CC(=O)O)cc1NC(=O)Nc1ccc(F)cc1F)C1CCOCC1 (single isomer, unassigned) [Example 431] |

| IC50 [nM] | SMILES |
| --- | --- |
| > 50 | CCOc1ncc(Nc2cc(C(CC)CC(=O)O)ccc2N2CCNCC2)cn1 (single isomer, unassigned) [Example 672, 3-(3-((2-Ethoxypyrimidin-5-yl)amino)-4-(piperazin-1-yl)phenyl)pentanoic acid] |
| < 50 | CCN(c1ccc(C(C)(C)CC(=O)O)cc1Nc1ccc(C#N)cc1)C1CCS(=O)(=O)CC1 [Example 178, 3-(3-((4-cyanophenyl)amino)-4-((1,1-dioxidotetrahydro-2H-thiopyran-4-yl)(ethyl)amino)phenyl)-3-melhylbutanoic acid] |
| < 50 | CCOc1ccc(Nc2cc(C(COC)CC(=O)O)cc(F)c2N(CC(C)C)CC(C)C)cc1 (single isomer, unassigned) [Example 923, 3-(4-(diisobutylamino)-3-((4-ethoxyphenyl)amino)-5-fluorophenyl)-4-methoxybutanoic acid] |
| < 5 | COCC(CC(=O)O)c1ccc(N2CCOC[C@H]2C(C)C)c(Nc2ccc(Cl)cc2)c1 (single isomer, unassigned) [Example 913] |
| < 5 | CCC(CC(=O)O)c1cc(F)c(N(CC)C2CCOCC2)c(Nc2cnc(OCC3CC3)nc2)c1 (single isomer, unassigned) [Example 141, 3-(3-((2-(cyclopropylmethoxy)pyrimidin-5-yl)amino)-4-(ethyl(tetrahydro-2H-pyran-4-yl)amino)-5-fluorophenyl)pentanoic acid] |
| < 5 | CCC(CC(=O)O)c1ccc(N(CC)C2CCCOC2)c(Nc2ccc(C#N)cc2)c1 (single isomer, unassigned) [Example 61, 3-(3-((4-cyanophenyl)amino)-4-(ethyl(tetrahydro-2H-pyran-3-yl)amino)phenyl)pentanoic acid] |
| < 50 | COCC(CC(=O)O)c1ccc(N(C)C2CCOCC2)c(Nc2ccc(C#N)cc2F)c1 (single isomer, unassigned) [Example 876, 3-(3-((4-cyano-2-fluorophenyl)amino)-4-(methyl(tetrahydro-2H-pyran-4-yl)amino)phenyl)-4-methoxybutanoic acid] |
| < 5 | CCC(CC(=O)O)c1ccc(N(CC)C2CCCOC2)c(Nc2cnc(OC)nc2)c1 (single isomer, unassigned) [Example 65, 3-(4-(ethyl(tetrahydro-2H-pyran-3-yl)amino)-3-((2-methoxypyrimidin-5-yl)amino)phenyl)pentanoic acid] |
| < 5 | CCC(CC(=O)O)c1cc(F)c(N(CC)C2CCOCC2)c(Nc2ccc(Cl)cc2)c1 (single isomer, unassigned) [Example 133, 3-(3-((4-Chlorophenyl)amino)-4-(ethyl(tetrahydro-2H-pyran-4-yl)amino)-5-fluorophenyl)pentanoic acid] |
| < 5 | CCCN(c1ccc([C@H](CC)CC(=O)O)cc1Nc1ccc(F)cc1)C1CCOCC1 (single isomer, unassigned) [Example 549] |
| < 50 | CCCN(c1ccc(C(C)(C)CC(=O)O)cc1Nc1ccc(C#N)cc1)C1CCS(=O)(=O)CC1 [Example 187, 3-(3-((4-Cyanophenyl)amino)-4-((1,1-dioxidotetrahydro-2H-thiopyran-4-yl)(propyl)amino)phenyl)-3-methylbutanoic acid] |
| > 50 | CCC1COCCN1c1ccc([C@H](COC)CC(=O)O)cc1Nc1ccc(C#N)cn1 (single isomer, unassigned) [Example 1289] |
| > 50 | CCC(CC(=O)O)c1ccc(N2CCNCC2)c(Nc2ccc(C#N)cc2)c1 (single isomer, unassigned) [Example 671 Enantiomer 1, 3-(3-((4-Cyanophenyl)amino)-4-(piperazin-1-yl)phenyl)pentanoic acid] |
| < 50 | CCN(c1ccc([C@@H](COC)CC(=O)O)cc1Nc1ccc(C#N)cc1C)C1CCOCC1 (single isomer, unassigned) [Example 367] |
| < 5 | CCC(CC(=O)O)c1ccc(N2C[C@@H]3C[C@H]2CN3C(=O)OC(C)(C)C)c(Nc2ccc(C#N)cc2)c1 (single isomer, unassigned) [Example 443 Diastereomer 1] |
| < 5 | CCCN(c1ccc([C@H](CC)CC(=O)O)cc1Nc1ccc(OC)nc1)C1CCOCC1 (single isomer, unassigned) [Example 553] |
| < 5 | CCCN(c1ccc([C@@H](COC)CC(=O)O)cc1Nc1ccc(C#N)cc1)C1CCOCC1 (single isomer, unassigned) [Example 558] |
| < 50 | CCN(c1ccc(C(C)CC(=O)O)cc1Nc1cnc(OC)nc1)C1CCOCC1 (single isomer, unassigned) [Example 620, 3-(4-(ethyl(tetrahydro-2H-pyran-4-yl)amino)-3-((2-methoxypyrimidin-5-yl)amino)phenyl)butanoic acid] |
| < 50 | CCN(c1ccc([C@@H](CC(=O)O)C(F)(F)F)cc1NC(=O)Nc1ccc(Cl)cc1F)C1CCOCC1 (single isomer, unassigned) [Example 1270] |
